Assay results published in PubChem BioAssay (NCI).
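Cultured in 96-well plates, cells were exposed to test compound for 48 hours across five concentrations. The concentration for 50% growth inhibition is given as GI50. At the TGI there is no net growth.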

Legend:
Experiment in all cases: NCI anticancer screen, dose series, 48 h
[1] = tested on: 786-0 renal
[2] = tested on: HCT-15 colon
[3] = tested on: KM12 colon
[4] = tested on: LOX IMVI melanoma
[5] = tested on: RPMI-8226 leukemia
[6] = tested on: SK-MEL-28 melanoma
[7] = tested on: SR leukemia
[8] = tested on: T-47D breast
[9] = tested on: UACC-62 melanoma
[10] = tested on: NCI-H226 lung

Row | SMILES | TGI [1] | TGI [2] | TGI [3] | TGI [4] | TGI [5] | TGI [6] | TGI [7] | TGI [8] | TGI [9] | GI50 [3] | GI50 [10] | TGI [10] | GI50 [5] | GI50 [6] | GI50 [7] | GI50 [8] | GI50 [9] | GI50 [2] | GI50 [4]
1 | Fc1c(F)c(C(F)(F)F)c(F)c(F)c1N/N=C/c1cn(Cc2ccccc2)c2ccccc12 | 66.8 µM | > 100 µM | 45 µM | 47.3 µM | 62.7 µM | > 100 µM | 67 µM | 83.6 µM | 61.5 µM |  |  |  |  |  |  |  |  |  | 
2 | COc1cc2c(cc1OCCCN1CCN(c3ncnc4ccccc34)CC1)N=CC1CCCN1C2=O (stereo not given) |  |  | 0.183 µM |  | 0.0353 µM | 0.103 µM | 0.0968 µM | 0.0757 µM | 0.0379 µM | 0.0325 µM | 0.0348 µM | 0.247 µM | < 0.0119 µM | 0.0336 µM | < 0.0149 µM | 0.0222 µM | 0.018 µM |  | 
3 | C[C@]12CCC(=O)C=C1CC[C@@H]1[C@@H]2[C@@H](O)C[C@@]2(C)[C@H]1CC[C@]2(O)C(=O)COC(=O)C1CCCC1 | > 100 µM | > 100 µM | > 100 µM | > 100 µM | > 100 µM | > 100 µM | > 100 µM | > 100 µM | > 100 µM |  |  | > 100 µM |  |  |  |  |  |  | 
4 | COc1ccc2c(c1)CC[C@@H]1[C@@H]2CC[C@]2(C)C(=O)/C(=C/c3ccc(O)c(OC)c3)C[C@@H]12 |  | 72.6 µM |  | > 100 µM | > 100 µM | > 100 µM | > 100 µM | > 100 µM | > 100 µM |  |  | > 100 µM |  |  |  |  |  |  | 
5 | COc1ccc(C2C(C=O)C(N3CCN(C)CC3)=Nc3nc4ccccc4n32)cc1 (stereo not given) | > 100 µM | 46.5 µM | 50.6 µM | 34.1 µM | 17.3 µM | 34.8 µM | 2.35 µM | 40.6 µM | 36.5 µM |  |  | 38.2 µM |  |  |  |  |  |  | 
6 | O=C(c1cccs1)N(Cc1cccnc1)C(=S)N(Cc1cccnc1)C(=O)c1cccs1 | 34.3 µM | > 100 µM | > 100 µM | > 100 µM |  | > 100 µM | > 100 µM | > 100 µM | > 100 µM |  |  | > 100 µM |  |  |  |  |  |  | 
7 | NC(CC(=O)O)(Cc1ccccc1)C(=O)O (stereo not given) | > 100 µM | > 100 µM | > 100 µM | > 100 µM | > 100 µM | > 100 µM | > 100 µM | > 100 µM | > 100 µM |  |  | > 100 µM |  |  |  |  |  |  | 
8 | Cn1c(=O)c2c(nc(NCCNc3nc4c(c(=O)n(C)c(=O)n4C)n3C)n2C)n(C)c1=O | > 100 µM | > 100 µM | > 100 µM | > 100 µM |  | > 100 µM | > 100 µM | > 100 µM | > 100 µM |  |  | > 100 µM |  |  |  |  |  |  | 
9 | COc1ccc(C2=NN(C(=O)c3cccnc3)C(O)(c3cc(F)c(Cl)cc3Cl)C2)cc1OC (stereo not given) | 62.2 µM | 35 µM | > 100 µM | 27.2 µM | 73 µM | 54.4 µM | 53.7 µM | > 100 µM |  |  |  | 30 µM |  |  |  |  |  |  | 
10 | Nc1nc(=O)n(CC(O)CO)s1 (stereo not given) |  | > 100 µM |  | > 100 µM | > 100 µM |  | > 100 µM |  | > 100 µM |  |  | > 100 µM |  |  |  |  |  |  | 
11 | O=C(NNC(=O)c1nsc2ccccc12)c1ccc(Cl)cc1 |  | 36.4 µM | 65.7 µM | 36.5 µM | 50.2 µM | 36.1 µM | 75.5 µM |  |  |  |  |  |  |  |  |  |  |  | 
12 | Cc1ccc(SSCCCCCS(=O)O)cc1 |  |  | > 100 µM | 30.9 µM | 71.4 µM | > 100 µM | 28.9 µM |  | 49.5 µM |  |  |  |  |  |  |  |  |  | 
13 | COc1ccc2nc3ccccc3c(NCc3ccc(C)cc3)c2c1 |  | 4.76 µM | 8.49 µM | 2.95 µM |  | 3.29 µM | 6.04 µM | 4.42 µM | 3.26 µM | 2.6 µM | 1.97 µM | 5.12 µM |  | 1.75 µM | 1.81 µM | 1.89 µM | 1.64 µM | 1.73 µM | 1.54 µM
14 | COc1ccc(C)cc1Nc1nnc(-c2ccc(N)cc2)s1 | > 100 µM | > 100 µM | > 100 µM | > 100 µM | 98.4 µM | > 100 µM | > 100 µM | > 100 µM | > 100 µM |  |  | > 100 µM |  |  |  |  |  |  | 
15 | O=C(COc1ccc(Cl)cc1Cl)N/N=C/C=C/c1ccc([N+](=O)[O-])o1 | 65.9 µM | > 100 µM | > 100 µM | 38.9 µM | 9.22 µM | > 100 µM |  | > 100 µM | > 100 µM |  |  | > 100 µM |  |  |  |  |  |  | 
16 | N#C[S-].[Ce+3].c1cnc2c(c1)ccc1cccnc12.c1cnc2c(c1)ccc1cccnc12.c1cnc2c(c1)ccc1cccnc12 | 11.1 µM |  | 18.3 µM | 10.9 µM | > 100 µM | 26.9 µM | > 100 µM |  | 10.1 µM |  |  | 8.24 µM |  |  |  |  |  |  | 
17 | CC(=O)C1=C(O)CCC1=O |  |  | > 100 µM | > 100 µM | > 100 µM | > 100 µM | > 100 µM | > 100 µM | > 100 µM |  |  | > 100 µM |  |  |  |  |  |  | 
18 | CCOC(=O)c1c(CN2CCCC2)n(-c2ccccc2)c2cc(Br)c(OC)cc12 | 32 µM | 34.1 µM |  | 27.5 µM | 34 µM | 35.3 µM | 25 µM | 38.6 µM | 23.8 µM |  |  | 35.6 µM |  |  |  |  |  |  | 
19 | COc1cc2c(cc1OC)-c1cc3ccc(OC)c(OC)c3c[n+]1CC2 | > 100 µM | > 100 µM | > 100 µM |  | > 100 µM | > 100 µM | > 100 µM | > 100 µM | > 100 µM |  |  | > 100 µM |  |  |  |  |  |  | 
